Results reported in patent publication US9643933B2, “Compounds useful as antibiotic tolerance inhibitors” (priority 2013, dated 2017).
Structures can show the parent of a compound that is named as a salt.

How the values were obtained:
Pyocyanin = Pyocyanin Inhibition Assay; type: cell-based, P. aeruginosa, strain PA14; details: Pseudomonas aeruginosa, PA14, 24 h, read-out: Pyocyanin Inhibition No. IC50 (μM)
Protocol: Test compounds are dissolved in DMSO at 10 mM and stored at −20° C. until needed. Seven test concentrations from 0.0032 micromolar to 31.6 micromolar are used for each compound.
P. aeruginosa, strain PA14, is inoculated into 5 mL of LB broth in a 15-mL sterile glass culture tube and incubated overnight at 37° C. under shaking (˜240 rpm). The overnight culture is then diluted in LB Broth to give an OD600=0.04 (T0 culture). Colony Forming Units (CFU)/mL of the overnight culture and T0 culture are determined by a series of 1:10 serial dilutions in sterile saline. 4×20 μL of each dilution is seeded on LB agar plates and incubated at 35±2° C. for 20 hours. CFU/mL is determined from the dilution that gives 2 to 50 colonies/20 μL.
For concentration response curve (CRC) experiments, internal standard, 2-((5-nitro-1H-indol-2-yl)thio)-N-(4-phenoxyphenyl)acetamide, a compound previously identified as an MvfR inhibitor (see Example 1 of US 2014-0066454 (WO 2012/116010)), and test compounds are serially diluted in DMSO to 200 times each final concentration (0.5% DMSO fmal), and 1 μL/well is dispensed in duplicate into 2 mL wells of a 96-well deep well plate. 200 μL/well of T0 culture are added to each internal standard/test compound well. Wells containing only T0 culture (200 200 μL/well) are used to determine pyocyanin control level and wells containing only LB broth (blank wells) are also included in the plate.
The plate is sealed and incubated at 37° C. under shaking (˜700 rpm) using a microtiter shaker for 24 hours. At the end of the incubation period, the plate is centrifuged at 4,000 g for 40 minutes at room temperature, 100 μL/well of the supernatant is transferred to a 96-microtiter PS flat-bottom plate, and absorbance at 690 nm is determined using SPECTROstar® Nano microplate reader. Pyocyanin concentration (M) is determined using the equation C=A690/(ε×d), where ε is the Pyocyanin extinction coefficient, at A690 nm ε is 4,310 M^−1 cm^−1 and d is the experimentally derived pathlength. The level of pyocyanin in the presence of test compound is expressed as percentage of inhibition with respect to the control. Curve fitting and IC50 determination were carried out using a four-parameter logistic model using GraphPad Prism v.5.

PQS = PQS Inhibition Assay (24 Hour Incubation); type: cell-based, P. aeruginosa PA14 wild-type strain; details: Pseudomonas aeruginosa, PA14, 24 h, read-out: PQS (24 hr) IC50 (μM)
Protocol: Test compounds are dissolved in DMSO at 10 mM and stored at −20° C. until needed. Seven test concentrations from 0.0032 micromolar to 31.6 micromolar are used for each compound. P. aeruginosa PA14 wild-type strain is inoculated into 5 mL LB broth in a 15-mL sterile glass culture tube and incubated overnight at 37° C. under shaking (˜240 rpm). The overnight culture is then diluted in LB Broth to give an OD600=0.04 (T0 culture). Colony Forming Units (CFU)/mL of the overnight culture and T0 culture are determined by a series of 1:10 serial dilutions in sterile saline. 4×20 μL of each dilution is seeded on LB agar plates and incubated at 35±2° C. for 20 hours. CFU/mL is determined from the dilution that gives 2 to 50 colonies/20 μL.
For concentration response curve (CRC) experiments, internal standard (2-((5-nitro-1H-indol-2-yl)thio)-N-(4-phenoxyphenyl)acetamide)) and test compounds are serially diluted in DMSO to give 200 times of each final concentration (0.5% DMSO final), and 1 μL/well is dispensed in duplicate into 2-mL wells of a 96 well deep well plate. 200 μL/well of T0 culture is added to each internal standard/test compound well used to determine PQS control level. Wells containing only LB broth (blank wells) are also included in the plate.
The plate is sealed and incubated at 37° C. for 24 hours under shaking (˜700 rpm) using a microtiter shaker. At the end of the incubation period, 150 μL/well of the deep well plate culture are transferred in a new non-sterile plate, and 150 μL/well of methanol containing tetra-deuterated PQS (D4-PQS) and 2% acetic acid are added to each well. The plate is sealed, shaken at high speed for 5 minutes and centrifuged at 4,000 g for 40 minutes at room temperature. 100 μL/well of the supernatant is then transferred to glass vials (vials crimp 0.2 mL) and kept at 4° C. until LC-MS/MS analysis.
PQSs quantification is carried out by analyzing samples in discrete batches together with spiked standards and blank samples.
Calibration curves are constructed from PQS standards, and respective deuterated PQS is used as an Internal Standards (IS) to calculate the concentration of analytes in the sample and improve the precision of the assay. The back-calculated concentrations of the calibration standards from the calibration curve shall be within ±20% of the nominal values, the range of the analytical method is determined, and the lower and upper limit of quantification specified.
Liquid chromatography separations are performed using an Agilent HP1100 system (Agilent Technologies) coupled with a CTC PAL Autosampler (CTC Analytics AG). Chromatographic retention is obtained using a monolithic column (Chromolith® RP-18, 50×4.6 mm). The solvent system consists of water containing 0.1% (v/v) formic acid (A) and acetonitrile containing 0.1% (v/v) formic acid (B). The gradient elution profile is chosen as follows: 0 min: 70% A (1500 μL/min), 0.3 min: 70% A (1500 μL/min), 1.3 min: 5% A (2500 μL/min), 1.6 min: 5% A (2500 μL/min).
The MS/MS analysis is performed with an API4000 series mass spectrometer (AB Sciex™) operating in Multiple Reaction Monitoring (MRM) mode and equipped with a TIS ion source. The specific ions monitored are PQS (m/z 260→m/z 175) and D4-PQS (m/z 264→m/z 179). The computer systems used in this study to acquire and quantify data may be an Analyst™ v1.5.
PQS in the presence of different concentrations of test compound are expressed as percentage of inhibition of the basal level in control samples. Curve fitting and IC50 estimations are carried out using a four parameter logistic model using GraphPad Prism v.5 program.

In the case of `Cn1c(SCC(=O)Nc2ccc(Oc3ccccc3)cc2)nc2cc([N+](=O)[O-])ccc21` [Compound 23], the IC50 (Pyocyanin) is reported as 1 to 10 µM and the IC50 (PQS) is reported as > 10 µM.
`N#Cc1ccc(NC(=O)CNc2nc3cc(Cl)ccc3s2)cc1` [Compound 72, 2-(5-Chlorobenzo[d]thiazol-2-ylamino)-N-(4-cyanophenyl)acetamide] was tested, and the IC50 (Pyocyanin) was > 10 µM and the IC50 (PQS) was > 10 µM.
In the case of `O=C(CNc1nc2ccc(Cl)cc2s1)Nc1ccc(Oc2cccnc2)cc1` [Compound 73, 2-((6-chlorobenzo[d]thiazol-2-yl)amino)-N-(4-(pyridin-3-yloxy)phenyl)acetamide], the IC50 (Pyocyanin) is reported as > 10 µM and the IC50 (PQS) is reported as > 10 µM.
For `N#Cc1ccc(NC(=O)CNc2nc3cc(Cl)ccc3o2)cc1` [Compound 75, 2-((5-chlorobenzo[d]oxazol-2-yl)amino)-N-(4-cyanophenyl)acetamide], the IC50 (Pyocyanin) was > 10 µM and the IC50 (PQS) was > 10 µM.
For `O=C(CSc1nc2cc(Cl)ccc2[nH]1)Nc1ccc(Oc2ccncc2)cc1` [Compound 76, 2-((5-chloro-1H-benzo[d]imidazol-2-yl)thio)-N-(4-(pyridin-4-yloxy)phenyl)acetamide], the IC50 (Pyocyanin) was < 0.1 µM and the IC50 (PQS) was < 1 µM.
In the case of `O=C(CSc1nc2cc(Cl)ccc2[nH]1)Nc1ccc(Oc2cnccn2)cc1` [Compound 78, 2-((5-chloro-1H-benzo[d]imidazol-2-yl)thio)-N-(4-(pyrazin-2-yloxy)phenyl)acetamide], the IC50 (Pyocyanin) is reported as < 0.1 µM and the IC50 (PQS) is reported as < 1 µM.
For `Cc1ccc(Oc2ccc(NC(=O)CSc3nc4cc(Cl)ccc4[nH]3)cc2)cn1` [Compound 80, 2-((5-chloro-1H-benzo[d]imidazol-2-yl)thio)-N-(4-((6-methylpyridin-3-yl)oxy)phenyl)acetamide], the IC50 (Pyocyanin) was < 0.1 µM and the IC50 (PQS) was < 1 µM.
In the case of `Cc1cncc(Oc2ccc(NC(=O)CSc3nc4cc(Cl)ccc4[nH]3)cc2)c1` [Compound 81, 2-(5-Chloro-1H-benzo[d]imidazol-2-ylthio)-N-(4-(5-methylpyridin-3-yloxy)phenyl)acetamide], the IC50 (Pyocyanin) is reported as < 0.1 µM and the IC50 (PQS) is reported as < 1 µM.
In the case of `O=C(NCCSc1nc2cc(Cl)ccc2[nH]1)c1ccc(Oc2cccnc2)cc1` [Compound 87, N-(2-((5-chloro-1H-benzo[d]imidazol-2-yl)thio)ethyl)-4-(pyridin-3-yloxy)benzamide], the IC50 (Pyocyanin) is reported as > 10 µM and the IC50 (PQS) is reported as > 10 µM.
For `N#Cc1ccc(C(=O)NCCSc2nc3cc(Cl)ccc3[nH]2)cc1` [Compound 88, N-(2-((5-chloro-1H-benzo[d]imidazol-2-yl)thio)ethyl)-4-cyanobenzamide], the IC50 (Pyocyanin) was > 10 µM and the IC50 (PQS) was > 10 µM.
With `N#Cc1ccc(NC(=O)CSc2cc3cc(Cl)ccc3[nH]2)cc1` [Compound 90, 2-((5-Chloro-1H-indol-2-yl)thio)-N-(4-cyanophenyl)acetamide] the IC50 (Pyocyanin) was 1 to 10 µM and the IC50 (PQS) was > 10 µM.
In the case of `O=S(=O)(CSc1nc2cc(Cl)ccc2[nH]1)Nc1ccc(Oc2cccnc2)cc1` [Compound 91, 1-((5-chloro-1H-benzo[d]imidazol-2-yl)thio)-N-(4-(pyridin-3-yloxy)phenyl)methanesulfonamide], the IC50 (Pyocyanin) is reported as > 10 µM and the IC50 (PQS) is reported as > 10 µM.
For `O=C(CCc1nc2ccc(Cl)cc2o1)Nc1ccc(Oc2cccnc2)cc1` [Compound 92, 3-(6-chlorobenzo[d]oxazol-2-yl)-N-(4-(pyridin-3-yloxy)phenyl)propanamide], the IC50 (Pyocyanin) was > 10 µM and the IC50 (PQS) was > 10 µM.
For `O=C(CSc1nc2cc(OC(F)F)ccc2[nH]1)Nc1ccc(Cl)cc1` [Compound 95], the IC50 (Pyocyanin) was 1 to 10 µM and the IC50 (PQS) was > 10 µM.
For `N#Cc1ccc(NC(=O)CSc2nc3cc(C(=O)O)ccc3[nH]2)cc1` [Compound 106], the IC50 (Pyocyanin) was > 10 µM and the IC50 (PQS) was > 10 µM.
`COC(=O)c1ccc2[nH]c(SCC(=O)Nc3ccc(C#N)cc3)nc2c1` [Compound 112] was tested, and the IC50 (Pyocyanin) was > 10 µM and the IC50 (PQS) was > 10 µM.
With `N#Cc1ccc(NC(=O)CSc2nc3ccc(-c4ncccn4)cc3[nH]2)cc1` [Compound 113] the IC50 (Pyocyanin) was > 10 µM and the IC50 (PQS) was > 10 µM.
In the case of `N#Cc1ccc(NC(=O)CSc2nc3ccc(-n4cccn4)cc3[nH]2)cc1` [Compound 117], the IC50 (Pyocyanin) is reported as 1 to 10 µM and the IC50 (PQS) is reported as > 10 µM.
`O=C(CCc1nc2ccc([N+](=O)[O-])cc2[nH]1)Nc1ccc(Cl)cc1` [Compound 134, N-(4-chlorophenyl)-3-(6-nitro-1H-benzo[d]imidazol-2-yl)propanamide hydrochloride] gave an IC50 (Pyocyanin) of 1 to 10 µM and an IC50 (PQS) of 1 to 5 µM.
For `CN(C)C(=O)Oc1ccc2[nH]c(SCC(=O)Nc3ccc(C#N)cc3)nc2c1` [Compound 135], the IC50 (Pyocyanin) was > 10 µM and the IC50 (PQS) was > 10 µM.
In the case of `CN(C)C(=O)Oc1ccc2[nH]c(SCC(=O)Nc3ccc(Cl)cc3)nc2c1` [Compound 136], the IC50 (Pyocyanin) is reported as > 10 µM and the IC50 (PQS) is reported as > 10 µM.
In the case of `N#Cc1cccc(NC(=O)CSc2nc3cc(Cl)ccc3[nH]2)c1` [Compound 138], the IC50 (Pyocyanin) is reported as > 10 µM and the IC50 (PQS) is reported as > 10 µM.
For `O=C(CSc1nc2cc(Cl)ccc2[nH]1)Nc1ccc2c(c1)OCO2` [Compound 139], the IC50 (Pyocyanin) was 1 to 10 µM and the IC50 (PQS) was > 10 µM.
For `COc1ccc(NC(=O)CSc2nc3c(Cl)cc(Cl)cc3[nH]2)cc1` [Compound 141], the IC50 (Pyocyanin) was 1 to 10 µM and the IC50 (PQS) was > 10 µM.
For `COc1ccc(NC(=O)CSc2nc3ccc(Cl)cc3[nH]2)cc1Cl` [Compound 143], the IC50 (Pyocyanin) was 1 to 10 µM and the IC50 (PQS) was 5 to 10 µM.
With `O=C(CSc1nc2ccc(Cl)cc2[nH]1)Nc1ccc(F)cc1F` [Compound 144] the IC50 (Pyocyanin) was 1 to 10 µM and the IC50 (PQS) was > 10 µM.
With `N#Cc1ccc(NC(=O)CCc2nc3ccc([N+](=O)[O-])cc3[nH]2)cc1` [Compound 148, N-(4-cyanophenyl)-3-(6-nitro-1H-benzo[d]imidazol-2-yl)propanamide] the IC50 (Pyocyanin) was 1 to 10 µM and the IC50 (PQS) was 5 to 10 µM.
In the case of `N#Cc1ccc(NC(=O)COc2nc3ccc([N+](=O)[O-])cc3[nH]2)cc1` [Compound 149, N-(4-cyanophenyl)-2-((6-nitro-1H-benzo[d]imidazol-2-yl)oxy)acetamide], the IC50 (Pyocyanin) is reported as 1 to 10 µM and the IC50 (PQS) is reported as > 10 µM.
With `O=C(COc1nc2ccc([N+](=O)[O-])cc2[nH]1)Nc1ccc(Cl)cc1` [Compound 150, N-(4-chlorophenyl)-2-((6-nitro-1H-benzo[d]imidazol-2-yl)oxy)acetamide] the IC50 (Pyocyanin) was 1 to 10 µM and the IC50 (PQS) was > 10 µM.
With `O=C(CNc1nc2ccccc2[nH]1)Nc1ccc(Oc2cccnc2)cc1` [Compound 151] the IC50 (Pyocyanin) was > 10 µM and the IC50 (PQS) was > 10 µM.
